Measurements reported in patent US20040024024A1, “Aromatic sulfone hydroxamates and their use as protease inhibitors” (priority 2001, published 2004).
pIC50: −log10 of the molar value.

Columns and labels:
Human recombinant MMP-13 = target: T1, Human recombinant MMP-13 (Homo sapiens, UniProt P45452); test: In vitro MMP inhibition, IC50 determination (fluorogenic substrate I); assay type: biochemical
T1 construct: made in house; host or cells: baculovirus / insect cells
Procedure: (§1) Several hydroxamates and salts thereof were analyzed in in vitro assays to determine their ability to inhibit the MMP cleavage of peptide substrates. Inhibition (Ki) and IC50 constants were calculated from the assayed hydroxamate-MMP interactions.
(§2) Human recombinant MMP-1, MMP-2, MMP-9, MMP-13, and MMP-14 were used in this assay. All enzymes were prepared in Assignee's laboratories following usual laboratory procedures. Protocols for the preparation and use of these enzymes are available in the scientific literature. See, e.g., Enzyme Nomenclature (Academic Press, San Diego, Calif., 1992) (and the citations therein). See also, Frije et al., J. Biol. Chem., 26(24), 16766-73 (1994).
The expressed proenzyme was first purified over a heparin agarose column, and then over a chelating zinc chloride column. The proenzyme was then activated by APMA for use in the assay. Further details on baculovirus expression systems may be found in, for example, Luckow et al., J. Virol., 67, 4566-79 (1993). See also, O'Reilly et al, Baculovirus Expression Vectors: A Laboratory Manual (W. H. Freeman and Co., New York, N.Y., 1992). See also, King et al., The Baculovirus Expression System: A Laboratory Guide (Chapman & Hall, London, England, 1992).
(§3) All MMPs were activated using 4-aminophenylmercuric acetate (“APMA”, Sigma Chemical, St. Louis, Mo.) or trypsin. MMP-9 also was activated using human recombinant MMP-3 (purified in Assignee's laboratory following standard cloning and purification techniques).
(§4) Two fluorogenic, methoxycoumarin-containing polypeptide substrates were used in the MMP inhibition assays:
(§5) MCA-ProLeuGlyLeuDpaAlaArgNH2 (I)
(§6) Here, “Dpa” is 3-(2,4-dinitrophenyl)-L-2,3-diaminopropionyl group, and “MCA” is 7-methoxycoumarin-4-yl acetyl. Substrate (I) was purchased from Baychem (Redwood City, Calif.), and substrate II was prepared Assignee's laboratory. Substrate I was used in the IC50 determination assays, while substrate II was used in the Ki determination assays. In the absence of MMP inhibitory activity, either substrate is cleaved at the Gly-Leu peptide bond. This cleavage separates the highly fluorogenic peptide from the 2,4-dinitrophenyl quencher, thus resulting in increase of fluorescent intensity.
(§7) The stock solutions of the assayed hydroxamates (or salts thereof) were prepared in 1% dimethyl sulfoxide (DMSO). These stock solutions were diluted in Buffer A (100 mM Tris-HCl, 100 mM NaCl, 10 mM CaCl2, 0.05% polyoxyethylene 23 lauryl ether, pH 7.5) to obtain solutions with different hydroxamate concentrations, i.e., assay solutions with different concentrations of the assayed MMP inhibitory compound. The experiment controls contained the same amount of Buffer A/DMSO as the assayed sample, but contained no hydroxamate (or salt thereof).
(§8) The assays from which the IC50 determinations were made were performed as follows. The MMPs were activated with either trypsin or APMA (4-aminophenylmercuric acetate, Sigma Chemical, St. Louis, Mo.). The assayed hydroxamate samples were, incubated in Microfluorrm White Plates (Dynatech, Chantilly, VA) and analyzed on a Perkin Elmer L550 plate reader (Norwalk, Conn.). The excitation wavelength was 328 nm, and the emission wavelength—415 nm. All samples (assayed hydroxamates and controls) were incubated in separate plates at room temperature in the presence of 4 μM of MMP substrate (I). As stated in the previous paragraph, samples containing varying concentrations of the same assayed hydroxamate were prepared. Inhibition was measured as a reduction in fluorescent intensity as a function of MMP inhibitor concentration.

Human recombinant MMP-2 = target: T2, Human recombinant MMP-2 (Homo sapiens, UniProt P08253); test: as above; assay type: biochemical
T2 construct: made in house; host or cells: MMP-2-transfected p2AHT2 cells
T2 sequence (P08253 110-660): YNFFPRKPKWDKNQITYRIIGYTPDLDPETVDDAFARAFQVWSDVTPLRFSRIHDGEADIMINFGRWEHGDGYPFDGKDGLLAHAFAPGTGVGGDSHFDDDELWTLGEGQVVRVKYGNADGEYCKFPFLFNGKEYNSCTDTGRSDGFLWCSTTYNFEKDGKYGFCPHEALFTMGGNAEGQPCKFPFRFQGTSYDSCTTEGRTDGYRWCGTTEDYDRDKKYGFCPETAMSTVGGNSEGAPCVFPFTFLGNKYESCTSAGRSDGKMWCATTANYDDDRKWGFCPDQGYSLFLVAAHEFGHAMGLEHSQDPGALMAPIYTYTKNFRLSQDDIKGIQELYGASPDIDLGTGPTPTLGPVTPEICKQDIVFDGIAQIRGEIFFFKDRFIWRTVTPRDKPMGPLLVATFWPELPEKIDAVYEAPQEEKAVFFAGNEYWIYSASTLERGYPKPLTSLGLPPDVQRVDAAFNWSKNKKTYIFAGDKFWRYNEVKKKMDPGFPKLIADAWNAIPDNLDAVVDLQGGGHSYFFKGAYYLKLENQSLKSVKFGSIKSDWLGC
Procedure: as §1, §2
The MMP-2 proenzyme was purified by gelatin Sepharose chromatography from MMP-2-transfected p2AHT2 cells provided by Dr. Gregory Goldberg of Washington University (St. Louis, Mo.).
as §3, §4, §5, §6, §7, §8

[1] = value outside parentheses (Ki in parenthesis)
[2] = substrate (I) 4 μM, room temperature, values not in parenthesis

Structure (SMILES)	pIC50 (Human recombinant MMP-13; value outside parentheses)	pIC50 (Human recombinant MMP-2; value outside parentheses)	pIC50 (Human recombinant MMP-13; value outside parenthesis)	pIC50 (Human recombinant MMP-2; value outside parenthesis)	other results
COc1ccc(C(C)(O)CCCCOc2ccc(S(=O)(=O)C3(C(=O)NO)CCOCC3)cc2)cc1 (stereo not shown) [Example 347]					pIC50 (Human recombinant MMP-13; [1]): 8.74; pIC50 (Human recombinant MMP-2; [1]): 7.99
COc1ccc(C(=O)NCCCOc2ccc(S(=O)(=O)C3(C(=O)NO)CCOCC3)cc2)cc1 [Example 17, tetrahydro-N-hydroxy-4-[[4-[3-[(4-methoxybenzoyl)amino]propoxy]phenyl]sulfonyl]-2H-pyran-4-carboxamide]					pIC50 (Human recombinant MMP-13; [2]): 8.80; pIC50 (Human recombinant MMP-2; [2]): 6.26
O=C(NCCCOc1ccc(S(=O)(=O)C2(C(=O)NO)CCOCC2)cc1)c1cc2cccc(O)c2cc1O [Example 379]					pIC50 (Human recombinant MMP-13; [1]): 8.00; pIC50 (Human recombinant MMP-2; [1]): 6.59
CCOc1ccc(-c2nnn(CCCOc3ccc(S(=O)(=O)C4(C(=O)NO)CCN(CCOC)CC4)cc3)n2)cc1 [Example 156]			9.00	7.49	
O=C(CCCOc1ccc(S(=O)(=O)C2(C(=O)NO)CCN(C3CC3)CC2)cc1)C1CCC(O)(c2ccc(Cl)cc2)CC1 (stereo not shown) [Example 255]			8.72	7.29	
O=C(NO)C1(S(=O)(=O)c2ccc(OCc3nc(-c4ccc(OC(F)(F)F)cc4)no3)cc2)CCOCC1 [Example 132]			8.43	7.21	
C=CCCCOc1ccc(S(=O)(=O)C2(C(=O)NO)CCOCC2)cc1 [Example 481]					pIC50 (Human recombinant MMP-13; [1]): 8.70; pIC50 (Human recombinant MMP-2; [1]): 8.89
CC(=O)NC(C)(C)CCOc1ccc(S(=O)(=O)C2(C(=O)NO)CCN(C3CC3)CC2)cc1 [Example 221]			6.61	5.06	
O=C(NO)C1(S(=O)(=O)c2ccc(OCCCc3cccc(N4CCNCC4)c3)cc2)CCN(C2CC2)CC1 [Example 641]	8.30	6.87			
CC(C)(C(=O)NCCCOc1ccc(S(=O)(=O)C2(C(=O)NO)CCOCC2)cc1)c1ccccc1 [Example 404]					pIC50 (Human recombinant MMP-13; [1]): 7.82; pIC50 (Human recombinant MMP-2; [1]): 6.60
NC(=O)c1cccc(-c2noc(CCCOc3ccc(S(=O)(=O)C4(C(=O)NO)CCN(C5CC5)CC4)cc3)n2)c1 [Example 131]			8.35	6.97	
COc1ccc(C(=O)NCCCNc2ccc(S(=O)(=O)C3(C(=O)NO)CCOCC3)cc2)cc1 [Example 358]					pIC50 (Human recombinant MMP-13; [1]): 7.84; pIC50 (Human recombinant MMP-2; [1]): 6.11
CN(C)c1c(F)cc(-c2noc(CCCOc3ccc(S(=O)(=O)C4(C(=O)NO)CCOCC4)cc3)n2)cc1F [Example 251]			8.27	6.74	
COCCN1CCC(C(=O)NO)(S(=O)(=O)c2ccc(OCCCn3nnc(-c4ccc(S(C)(=O)=O)cc4)n3)cc2)CC1 [Example 104]			9.10	7.35	

Continued, in another order:

pIC50 (Human recombinant MMP-13; value outside parentheses)	pIC50 (Human recombinant MMP-2; value outside parentheses)	pIC50 (Human recombinant MMP-13; value outside parenthesis)	pIC50 (Human recombinant MMP-2; value outside parenthesis)	Structure (SMILES)	other results
7.41	6.47			Cn1c(C(=O)NCCOc2ccc(S(=O)(=O)C3(C(=O)NO)CCOCC3)cc2)cc2ccccc21 [Example 592]	
8.80	7.80			CC(C)Oc1cccc(NC(=O)CCCOc2ccc(S(=O)(=O)C3(C(=O)NO)CCOCC3)cc2)c1 [Example 583]	
7.79	5.91			CC(C)CCCc1cccc(CCCOc2ccc(S(=O)(=O)C3(C(=O)NO)CCOCC3)cc2)c1 [Example 612]	
8.62	7.47			COc1ccc(S(=O)(=O)NCCOc2ccc(S(=O)(=O)C3(C(=O)NO)CCOCC3)cc2)cc1 [Example 603]	
8.82	7.68			O=C(NO)C1(S(=O)(=O)c2ccc(OCCCc3nnc(-c4ccncc4)o3)cc2)CCOCC1 [Example 568]	
8.92	7.32			O=C(CCCOc1ccc(S(=O)(=O)C2(C(=O)NO)CCOCC2)cc1)N1CCc2ccccc21 [Example 577]	
